pKd: −log10 of the molar value. Active and inactive are the calls of the source. The calls are words filed in the database; no cut-off is given here. Where a SMILES comes first, the peptide text is derived from it. Bridges are numbered along the chain shown (N, C = ends).
Columns and labels:
[1] = Drug uptake in mouse Primary neuron at 100 nM measured at 20 mins by inverted confocal microscopic analysis; type: ADME, cell-based; conditions: 0.1 µM
[2] = Biodistribution in C57BL/6 mouse liver at 3 nmol/g, iv measured after 90 mins post injection using Cy7 labelled compound by fluorescence based analysis; type: ADME, organism-based; conditions: in vivo, 1.5 h
[3] = system: Neuron; assay: Neuroprotective activity against Amyloid beta-induced cell death in mouse primary neuron assessed as cell viability preincubated with compound for 1 hrs followed by Amyloid beta addition and measured after 1 hrs by PI staining based analysis relative to control; type: functional; conditions: time 2 hrs
[4] = Toxicity in C57BL/6 mouse assessed as change in alanine transaminase level at 3 nmol/g, iv administered 3 consecutive days; type: organism-based; conditions: in vivo
[5] = system: Neuron; assay: Neuroprotective activity against Amyloid beta-induced cell death in mouse primary neuron assessed as cell viability at 100 nM preincubated with compound for 1 hrs followed by Amyloid beta addition and measured after 1 hrs by PI staining based analysis; type: functional; conditions: time 2.0 hrs
[6] = system: Mus musculus; assay: Neuroprotective activity against pilocarpine-induced seizure in C57BL6 mouse assessed as reduction in seizure severity at 3 nmol/g, iv pretreated with compound for 1 hrs followed by pilocarpine induction and measured after 2 hrs; type: functional, organism-based; conditions: time 3.0 hrs
[7] = system: Neuron; assay: Neuroprotective activity against NMDA-induced cell death in mouse primary neuron assessed as reduction in cell viability at 100 nM preincubated with compound for 1 hrs followed by NMDA addition and measured after 1 hrs by PI staining based analysis (reference value: 60.01 +/- 4%); type: functional; conditions: time 2 hrs
[8] = Toxicity in C57BL/6 mouse assessed as histological changes in spleen at 3 nmol/g, iv administered 3 consecutive days by H and E staining based analysis; type: organism-based; conditions: in vivo
[9] = molecular target: Disks large homolog 4 (Homo sapiens, UniProt P78352); assay: Binding affinity to PSD-95 (unknown origin) assessed as binding constant (Kd) by MST analysis
Chain of Disks large homolog 4 (P78352 whole entry): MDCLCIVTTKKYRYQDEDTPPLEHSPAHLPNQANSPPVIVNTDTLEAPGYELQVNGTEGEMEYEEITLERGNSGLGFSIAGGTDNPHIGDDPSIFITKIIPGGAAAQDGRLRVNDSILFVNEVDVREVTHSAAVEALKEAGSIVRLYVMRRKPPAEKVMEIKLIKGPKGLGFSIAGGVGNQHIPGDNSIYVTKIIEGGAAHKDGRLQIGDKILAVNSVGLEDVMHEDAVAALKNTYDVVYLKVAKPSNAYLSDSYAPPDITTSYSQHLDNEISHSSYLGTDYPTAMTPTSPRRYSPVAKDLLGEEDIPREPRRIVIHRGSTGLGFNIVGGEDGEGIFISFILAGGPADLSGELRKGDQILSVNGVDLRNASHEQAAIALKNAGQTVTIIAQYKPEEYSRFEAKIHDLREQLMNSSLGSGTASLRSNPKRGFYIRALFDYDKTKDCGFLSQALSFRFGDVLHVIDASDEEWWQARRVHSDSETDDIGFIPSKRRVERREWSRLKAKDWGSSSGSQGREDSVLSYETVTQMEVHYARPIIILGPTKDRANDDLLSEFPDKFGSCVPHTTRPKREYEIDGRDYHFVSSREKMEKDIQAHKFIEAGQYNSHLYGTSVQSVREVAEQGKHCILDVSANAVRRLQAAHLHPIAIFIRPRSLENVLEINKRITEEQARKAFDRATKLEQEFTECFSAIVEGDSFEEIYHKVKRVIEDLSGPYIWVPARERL

[10] = Biodistribution in C57BL/6 mouse brain at 3 nmol/g, iv measured after 90 mins post injection using Cy7 labelled compound by fluorescence based analysis; type: ADME, organism-based; conditions: in vivo, 1.5 h
[11] = Toxicity in C57BL/6 mouse assessed as histological changes in lung at 3 nmol/g, iv administered 3 consecutive days by H and E staining based analysis; type: organism-based; conditions: in vivo
[12] = system: Mus musculus; assay: Neuroprotective activity against pilocarpine-induced seizure in C57BL6 mouse assessed as survival rate at 30 nmol/g, po pretreated with compound for 1 hrs followed by pilocarpine induction and measured after 2 hrs relative to control; type: functional; conditions: time 3 hrs
[13] = system: Neuron; assay: Neuroprotective activity against NMDA-induced cell death in mouse primary neuron assessed as cell viability at 1 nM preincubated with compound for 1 hrs followed by NMDA addition and measured after 1 hrs by PI staining based analysis relative to control; type: functional; conditions: time 2 hrs, read-out: Activity
[14] = system: Neuron; assay: Neuroprotective activity against NMDA-induced cell death in mouse primary neuron assessed as cell viability preincubated with compound for 1 hrs followed by NMDA addition and measured after 1 hrs by PI staining based analysis relative to control; type: functional; conditions: time 2 hrs
[15] = Biodistribution in C57BL/6 mouse lung at 3 nmol/g, iv measured after 90 mins post injection using Cy7 labelled compound by fluorescence based analysis; type: ADME, organism-based; conditions: in vivo, 1.5 h
[16] = system: Neuron; assay: Cytotoxicity against mouse primary neuron upto 1 uM incubated for 24 hrs; type: toxicity, cell-based
[17] = Biodistribution in C57BL/6 mouse spleen at 3 nmol/g, iv measured after 90 mins post injection using Cy7 labelled compound by fluorescence based analysis; type: ADME, organism-based; conditions: in vivo, 1.5 h
[18] = Biodistribution in C57BL/6 mouse heart at 3 nmol/g, iv measured after 90 mins post injection using Cy7 labelled compound by fluorescence based analysis; type: ADME, organism-based; conditions: in vivo, 1.5 h
[19] = system: Mus musculus; assay: Neuroprotective activity against pilocarpine-induced seizure in C57BL6 mouse assessed as survival rate at 3 nmol/g, iv pretreated with compound for 1 hrs followed by pilocarpine induction and measured after 2 hrs relative to control; type: functional; conditions: time 3 hrs
[20] = Biodistribution in C57BL/6 mouse spleen at 3 nmol/g, iv measured after 24 hrs post injection using Cy7 labelled compound by fluorescence based analysis; type: ADME, organism-based; conditions: in vivo
[21] = system: Mus musculus; assay: Neuroprotective activity against pilocarpine-induced seizure in C57BL6 mouse assessed as reduction in seizure severity at 30 nmol/g, po pretreated with compound for 1 hrs followed by pilocarpine induction and measured after 2 hrs; type: functional, organism-based; conditions: time 3.0 hrs
[22] = Toxicity in C57BL/6 mouse assessed as histological changes in liver at 3 nmol/g, iv administered 3 consecutive days by H and E staining based analysis; type: organism-based; conditions: in vivo
[23] = Biodistribution in C57BL/6 mouse lung at 3 nmol/g, iv measured after 24 hrs post injection using Cy7 labelled compound by fluorescence based analysis; type: ADME, organism-based; conditions: in vivo
[24] = system: Neuron; assay: Neuroprotective activity against NMDA-induced cell death in mouse primary neuron assessed as cell viability at 10 nM preincubated with compound for 1 hrs followed by NMDA addition and measured after 1 hrs by PI staining based analysis relative to control; type: functional; conditions: time 2 hrs, read-out: Activity
[25] = system: Neuron; assay: Neuroprotective activity against Amyloid beta-induced cell death in mouse primary neuron assessed as cell viability at 0.1 nM preincubated with compound for 1 hrs followed by Amyloid beta addition and measured after 1 hrs by PI staining based analysis; type: functional
[26] = Toxicity in C57BL/6 mouse assessed as histological changes in kidney at 3 nmol/g, iv administered 3 consecutive days by H and E staining based analysis; type: organism-based; conditions: in vivo
[27] = Biodistribution in C57BL/6 mouse kidney at 3 nmol/g, iv measured after 90 mins post injection using Cy7 labelled compound by fluorescence based analysis; type: ADME, organism-based; conditions: in vivo, 1.5 h

With `CC[C@H](C)[C@@H]1NC(=O)[C@@H]2CSSC[C@@H]3NC(=O)[C@H](C(C)C)NC(=O)[C@H](CC(=O)O)NC(=O)[C@H](CO)NC(=O)[C@H](CCC(=O)O)NC(=O)[C@H]([C@@H](C)CC)NC(=O)[C@H](CO)NC(=O)[C@H](CO)NC(=O)[C@H](CC(C)C)NC(=O)[C@H](CCCCN)NC(=O)[C@@H]4CSSC[C@H](NC(=O)[C@H](CC(=O)O)NC(=O)[C@H](CO)NC(=O)[C@H](CC(=O)O)NC(=O)[C@H](CCCNC(=N)N)NC(=O)[C@H](CCCNC(=N)N)NC(=O)[C@H](CSSC[C@H](NC1=O)C(=O)N[C@@H](CCCNC(=N)N)C(=O)NCC(=O)N[C@@H](CC(N)=O)C(=O)NCC(=O)N[C@@H](Cc1ccc(O)cc1)C(=O)N4)NC(=O)[C@H](CCCNC(=N)N)NC(=O)[C@H](CCCNC(=N)N)NC(=O)[C@H](CCCNC(=N)N)NC(=O)[C@H](CCCNC(=N)N)NC(=O)[C@H](CC(C)C)NC(=O)[C@H]([C@@H](C)CC)NC(=O)[C@H](CCCNC(=N)N)NC(=O)[C@@H]1CCCN1C3=O)C(=O)N1CCC[C@H]1C(=O)NCC(=O)N[C@@H](C)C(=O)N2` (cyclo(ACICRGNGYCKLSSIESDVCPRILRRRRCRRDSDCPG); disulfide 2-20, 4-29, 10-35) the Drug uptake [1] was “Active”, the Drug uptake [2] was “Active” and the Activity [3] was 20.9%. For the same compound, the Activity [4] was “Toxic”, the Activity [5] was “Active” and the Activity [6] was “Active”. The Activity [7] was 8.56%, the Activity [8] was “Non-toxic” and the pKd [9] was 5.74. The Drug uptake [10] was “Active”, the Activity [11] was “Non-toxic” and the Survival [12] was 50%. The viability at 0.001 µM [13] was 39.8%, the Activity [14] was 18.2% and the Drug uptake [15] was “Active”. The Activity [16] was “Non-toxic”, the Drug uptake [17] was “Active” and the Drug uptake [18] was “Active”. For the same compound, the Survival [19] was 75%, the Drug uptake [20] was “Not_active” and the Activity [21] was “Not active; Slightly Lower Seizure Severity”. For the same compound, the Activity [22] was “Non-toxic”, the Drug uptake [23] was “Active” and the viability at 0.01 µM [24] was 22.4%. The Activity [25] was “Active”, the Activity [26] was “Non-toxic” and the Drug uptake [27] was “Active”.
